Assay results reported in patent US8329746B2, “Method for treating osteoarthritis” (CaloSyn Pharma, Inc., priority 2005, dated 2012).

Test system: synovial lining cells
Settings: human

SMILES | concentration that must not be exceeded in compositions (harmful effects on synovial cells)
CCN(CC)CCNC(=O)c1ccc(N)cc1 [procainamide] | ≤ 2000 µg/mL
COc1ccc(CCN(C)CCCC(C#N)(c2ccc(OC)c(OC)c2)C(C)C)cc1OC (centres unmarked) [verapamil] | ≤ 2000 µg/mL
